The values that follow come from patent US12280144B2, “Gel compositions for mitigation of burn injuries, kits containing the gel compositions, and associated methods” (priority 2019, dated 2025).

The conditions of series [1]: cited from earlier work; for pKa1 / pKa2: 25° C.; for pKa: Table 1, pKa of the parent weak acid of the sodium salt.
The conditions of series [2]: at 25° C.; KCl and NaHCO3 values are assumed (NaHCO3: Leaist et al); cited from earlier work.
A short description of series [3]: Acid/base dissociation constants of weak acids and their sodium salts. Particulars: anion of the salt in water; for Kb: Kb=10^−pKb.
The conditions of series [4]: external use on burn wounds in HSST; cited from earlier work.

For `O=C(O)CC(O)(CC(=O)O)C(=O)O` [Citric Acid], in series [1], the pKa1 is 2.92, the pKa2 is reported as 4.28 and the pKa3 is reported as 5.21.

Regarding `[Cl-].[K+]` [KCl], the “diffusivity in water DAB” value in series [2] is 13.6·10^−6 cm^2/s.

Take `CC(O)C(=O)O` (stereo not shown) [Lactic Acid]: the Kb in series [3] is 7.24*10^−12.

Take `O=C([O-])O.[Na+]` [Sodium Bicarbonate]: the Kb in series [3] is 2.24*10^−6. For the same compound, the pKb – broadly, the negative decadic logarithm of the Kb, by convention in mol/L – in series [3] (pKb=14.00−pKa, 25° C.) was determined as 7.65. Moreover, in series [1], the pKa1 is 6.35, the pKa2 is given as 10.3 and the pKa (usually the pH at which an ionisable group is half protonated) is 6.35.

Take `CC(O)C(=O)[O-].[Na+]` (stereo not shown) [Sodium Lactate]: the pKa in series [1] was 3.86.

As for `O=C([O-])CC(O)(CC(=O)[O-])C(=O)[O-].[Na+].[Na+].[Na+]` [Trisodium Citrate], the pKa in series [1] is recorded as 3.14.

Consider `CCN(CC)CC(=O)Nc1c(C)cccc1C` [lidocaine], for which the “dosage considered safe for external use” value in series [4] was “less than 400 mg”.
